Among the data in ChEMBL document CHEMBL6083177, “Targeting bromodomian-containing protein 8 (BRD8): An advanced tool to interrogate BRD8” (Eur J Med Chem, 2024) are IC50 values, retold here.

As a reminder, the IC50 is the concentration that inhibits the measured activity by half.

Assay [1] is described as follows: Inhibition of BRD8/BRD1 (unknown origin).
A short description of assay [2]: Inhibition of BRD4/BRD1 (unknown origin).
The target in assay [3] is T1, Bromodomain-containing protein 9 (Homo sapiens, UniProt Q9H8M2).
T1 sequence (Q9H8M2 whole entry): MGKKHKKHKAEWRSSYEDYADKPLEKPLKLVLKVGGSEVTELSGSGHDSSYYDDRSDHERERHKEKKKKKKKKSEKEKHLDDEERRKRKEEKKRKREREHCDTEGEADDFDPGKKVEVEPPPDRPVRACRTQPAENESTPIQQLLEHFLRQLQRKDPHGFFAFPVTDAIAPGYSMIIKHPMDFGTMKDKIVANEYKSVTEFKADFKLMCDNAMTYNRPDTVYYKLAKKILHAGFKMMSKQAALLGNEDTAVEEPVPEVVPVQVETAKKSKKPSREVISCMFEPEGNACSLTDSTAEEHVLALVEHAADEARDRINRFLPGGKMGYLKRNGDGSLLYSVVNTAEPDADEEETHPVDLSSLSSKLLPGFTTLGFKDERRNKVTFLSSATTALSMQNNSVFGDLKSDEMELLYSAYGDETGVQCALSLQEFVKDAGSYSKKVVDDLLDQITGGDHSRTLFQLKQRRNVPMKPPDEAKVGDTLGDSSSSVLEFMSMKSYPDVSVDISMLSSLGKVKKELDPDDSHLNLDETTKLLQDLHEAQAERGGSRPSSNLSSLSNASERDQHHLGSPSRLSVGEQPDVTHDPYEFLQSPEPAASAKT
The experiment in a line: Inhibition of BRD9 (unknown origin) by TR-FRET assay. (In general: Time-resolved FRET reads energy transfer from a long-lived donor to a nearby acceptor.)

For assay [4], the target named is T2, Bromodomain-containing protein 1 (Homo sapiens, UniProt O95696).
T2 sequence (O95696 whole entry): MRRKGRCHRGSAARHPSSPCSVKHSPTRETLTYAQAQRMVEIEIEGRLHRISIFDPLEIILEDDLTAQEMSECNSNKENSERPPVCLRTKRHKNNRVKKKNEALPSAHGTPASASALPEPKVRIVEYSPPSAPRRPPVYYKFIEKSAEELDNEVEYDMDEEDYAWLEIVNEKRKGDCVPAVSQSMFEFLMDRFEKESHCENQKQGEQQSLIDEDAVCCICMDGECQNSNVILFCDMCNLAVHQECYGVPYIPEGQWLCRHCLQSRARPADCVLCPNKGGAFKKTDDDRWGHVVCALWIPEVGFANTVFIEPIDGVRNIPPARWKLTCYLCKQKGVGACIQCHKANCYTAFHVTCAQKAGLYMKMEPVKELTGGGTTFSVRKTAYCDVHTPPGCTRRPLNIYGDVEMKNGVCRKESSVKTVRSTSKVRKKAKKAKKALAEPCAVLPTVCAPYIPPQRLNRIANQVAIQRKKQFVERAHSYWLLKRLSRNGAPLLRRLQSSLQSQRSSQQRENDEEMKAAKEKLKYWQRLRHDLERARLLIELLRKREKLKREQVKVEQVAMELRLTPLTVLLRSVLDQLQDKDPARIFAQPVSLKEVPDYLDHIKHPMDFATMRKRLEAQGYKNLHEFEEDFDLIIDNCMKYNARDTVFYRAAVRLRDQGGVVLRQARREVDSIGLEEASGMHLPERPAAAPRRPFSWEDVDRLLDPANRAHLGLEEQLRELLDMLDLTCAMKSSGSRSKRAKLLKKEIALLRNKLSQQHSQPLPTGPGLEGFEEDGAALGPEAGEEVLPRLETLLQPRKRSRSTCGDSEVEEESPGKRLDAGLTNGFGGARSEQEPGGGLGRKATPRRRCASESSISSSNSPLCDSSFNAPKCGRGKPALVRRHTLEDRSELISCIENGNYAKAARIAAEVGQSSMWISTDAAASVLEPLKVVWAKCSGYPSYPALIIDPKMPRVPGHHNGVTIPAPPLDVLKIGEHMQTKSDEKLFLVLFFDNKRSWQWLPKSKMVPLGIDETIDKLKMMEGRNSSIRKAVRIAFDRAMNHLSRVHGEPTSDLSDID
Nature of the assay: Inhibition of BRD1 (unknown origin).

Assay [5] in a line: Inhibition BRD9/BRD1 (unknown origin) by Alpha Screen assay.
The nature of assay [6]: Inhibition of BRD8/BRD1 (unknown origin) by Alpha Screen assay. (In Alpha technology, singlet oxygen from a donor bead excites a nearby acceptor bead.)

As for `COc1cc(-c2cn(C)c(=O)c3cc(F)ccc23)c(OC)cc1CN(C)C`, the 50% inhibitory concentration (IC50) in assay [1] is 160 nM; in assay [2] it was over 10000 nM; in assay [3] it was 20 nM.
Taken in the same sequence, the figures for `COc1cc(CN(C)C)cc(OC)c1-c1cn(C)c(=O)c2cnccc12` were 80 nM, over 10000 nM and over 10000 nM.
In the case of `COc1cc(-c2cn(C)c(=O)c3cnccc23)c(OC)cc1CN1CC(N)C1`, the IC50 in assay [2] is 7400 nM; in assay [3] it was under 10 nM; in assay [4], 490 nM.
Take `COc1cc(CN(C)C)cc(OC)c1-c1cn(C)c(=O)c2cc(F)ccc12`: the 50% inhibitory concentration (IC50) in assay [5] worked out at 10000 nM; in assay [6], 12 nM.
